Values joined by “and” are separate entries in the source; they are usually repeats but may differ in a detail not shown here. Identical values can stand only once. Like-named read-outs stand apart in the source and are kept apart here.
Legend:
[1] = system: synaptophysin-immunopositive puncta along MAP2-labeled neurites; test: Synapse counting assay; assay type: cell-based, rat; settings: synthetic Abeta oligomers vs vehicle, 24 hrs
Description: Sprague-Dawley rats, 18 days pregnant, were euthanized by CO2 asphyxiation followed by cervical dislocation, and embryos were removed. Hippocampus and cortical tissue from the embryo brains were digested in 2.5% Trypsin (Life Technologies) to dissociate cells. Isolated cells were plated at a density of 4.6×10^4 cells per cm^2 in 384-well poly-D Lysine coated plates (Greiner) in Neurobasal Media (Life Technologies) supplemented with B27 (Life Technologies), Glutamax (Life Technologies) and antibiotics (penicillin, 50 units/ml and streptomycin 50 µg/ml, Life Technologies). Cultures were maintained at 37°C in 5% CO2 with weekly media change for 3 weeks prior to experimentation. These mixed cultures of hippocampal plus cortical neurons and glia were used for all of the in vitro experiments described.
Cultures were treated with compounds for 60 minutes prior to addition of 6 µM (maximum from trafficking dose-response curve) of synthetic Abeta 1–42 oligomers and incubated for 24 hrs. Cultures were fixed and immunofluorescently labeled and imaged as for the Abeta binding assay. The ThermoFisher/Cellomics Neuronal Profiling bioapplication was used to count synaptophysin-immunopositive puncta along MAP2-labeled neurites. The number of puncta per unit length of neurites was used to determine effects of treatments. To attain statistical power of 80% and a p value of less than 0.05 (determined using G*Power software), twenty replicate wells were treated per experiment plate and compared to control wells on the same plate and experiments were repeated four times.

[2] = system: neuronal synaptic puncta in hippocampal/cortical cultures; test: Abeta binding assay, neurons (immunofluorescence of neurite puncta); parameters: species or system rat
Description: Alternatively, displacement of prebound oligomers was evaluated by adding oligomers 60 min prior to the addition of compounds, followed by additional 30 minutes incubation. Cells were fixed with 3.75% formaldehyde for 15 min, blocked with 5% normal goat serum and 0.5% Triton X-100 and incubated with primary antibodies for Abeta (1 µg/ml 6E10 or 4G8, Covance catalog numbers SIG-39320 and SIG-39330, respectively), MAP-2 (0.2 µg/ml Chemicon), Synaptophysin-1 (1 µg/ml, Anaspec), glial fibrillary acidic protein (GFAP, 1 µg/ml, Thermo-Fisher) and fluorescently labeled secondary antibodies (2 µg/ml, Invitrogen). Images were acquired on a Cellomics VTi automated microscope with a 20X, 0.75 NA objective and analyzed using ThermoFisher/Cellomics Neuronal Profiling bioapplication set to measure punctate labeling of Abeta and synaptophysin-1 along MAP-2 labeled neurites. For each replicate experiment, at least 100 neurons were sampled from 4 replicate wells for each experimental condition (400 to 500 neurons per experimental condition). […] All data presented for Abeta binding to neurons represents total intensity of Abeta label in neurite spots per neuron, in relative fluorescent units (RFU), unless otherwise indicated.

[3] = system: mature primary hippocampal and cortical cultures; test: Membrane trafficking assay (MTT formazan exocytosis); assay type: cell-based, rat; settings: for EC50: preparation dosed alone, read-out: EC50 of Abeta preparation;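 on all read-outs here: mixed neuron and glia cultures from E18 Sprague-Dawley rat embryos, grown 3 weeks in 384-well plates, labeled vesicles quantified by imaging or spectrophotometry as percent of vehicle-treated wells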
[4] = system: C57/BL6 mice injected with Abeta oligomers; test: Contextual fear conditioning after intrahippocampal Abeta oligomer injection; assay type: in vivo; settings: injected into dorsal hippocampi 24 hours prior to testing
Excerpt: All procedures were approved by the Institutional Animal Care and Use and Committee at Columbia University and Stanford University and were in compliance with the Office of Laboratory Animal Welfare and the Guide for the Care and Use of Laboratory Animals, Eighth Edition. Behavioral testing of wild-type, 3–4 month old, male, C57/BL6 mice, injected bilaterally into their hippocampus with Abeta oligomers and testing in the fear conditioning task was done according to published methods. Animals were anesthetized with […] Avertin prior to implantation of cannulas into the hippocampus. Testing of transgenic hAPP Swedish/London mice in the Morris water maze or fear conditioning tasks was done according to published methods, [38]. To measure brain concentration of drugs, brains were homogenized in 1 ml PBS per gram of brain tissue using a handheld homogenizer. Brain homogenate was then extracted with three volumes of ice cold methanol on ice for 15 minutes and centrifuged for 15 min. The supernates were analyzed by LC/MS/MS. Samples were compared to a calibration curve prepared in a similar manner by spiking blank control homogenate with standards prepared in DMSO and then extracted as above. At the end of all behavioral testing, animals were euthanized with CO2 followed by cervical dislocation.

[5] = system: glia; test: Abeta binding assay, glia cell bodies; parameters: species or system rat
Description: Measurements of Abeta binding to glia were made with a separate algorithm (ThermoFisher/Cellomics Target Activation bioapplication) which identifies cells lacking MAP2 labeling. Glial cells were analyzed after separating them based on their nuclear morphology as determined by the characteristics of their DAPI labeling, as described in Fig. S1. […]
The morphology of MAP-2 negative glial nuclei labeled with DAPI was analyzed via automated image processing. […]

[6] = system: hippocampal/cortical cultures; test: Internalization of Abeta oligomers (immunolabeling with/without detergent); assay type: cell-based, rat; settings: for bound Abeta at the surface: 1 µM
Description: Supplementary file pone.0111898.s002.tif: Figure S2 Internalization of Abeta oligomers. After treatment with Abeta oligomers (1 µM) for 1 hr (A, B) or 2 hr (C, D), cultures were fixed and immunolabeled for Abeta either in the presence of 0.05% Triton X-100 to permeabilize cells to immunoglobulins and measure all Abeta present (A, C) or in the absence of this detergent (B, D) to detect only Abeta bound at the cell surface. […] (TIF) Click here for additional data file.

[7] = listed as synthetic Abeta oligomers

Which “loss of synaptophysin-immunoreactive puncta” value ([1]; listed as Oligomers) does the source give for “synthetic oligomers (high concentration): synthetic human Abeta 1–42 oligomerized at 100 µM, 4°C, 24 hr; contains monomer [reference compound]” here?
Its value is 18%±2.

What about the “loss of synaptophysin-immunoreactive puncta” value [1, 7] of the same substance?
Its value is 18%.

And the “bound puncta colocalizing with synaptophysin presynaptic terminals” value ([2]; 440 nM total Abeta, 60 minutes)?
The value was 37%±3%.

And the Kd ([2]; 60 min treatment, read-out: Kd Site 1 (high affinity), neurons synaptic puncta)?
The Kd was 0.518 µM.

What about the “Treatment duration for maximum response” value ([3]; Abeta preparation dosed alone) of the same substance?
The value was 24 h.

And the EC50 [3, 7]?
The EC50 was 0.462 ± 0.056 µM.

What about the EC50 [3] of the same substance?
Its EC50 is 0.46 µM.

What about the “effect of Abeta oligomers on contextual fear memory” value [4] of the same substance?
The value was “cause a deficit in contextual fear conditioning-dependent associative memory”.

What about the Kd ([5]; non-saturable site, read-out: Kd Site 2, glia cell bodies with condensed/asymmetric nuclear morphology) of the same substance?
The Kd was > 1000 µM.

And the Kd ([5]; read-out: Kd Site 1 (high affinity), glia cell bodies with condensed/asymmetric nuclear morphology)?
Its Kd is 0.289 µM.

What about the “bound Abeta at the surface” value ([6]; 1 hr exposure) of the same substance?
Its value is 96%±8%.

What about the “bound Abeta internalized” value ([6]; 2 hr exposure, listed as Abeta oligomers) of the same substance?
Its value is 27%±8% and 27±8%.

And the “bound Abeta at the surface” value ([6]; 2 hrs exposure)?
Its value is 73%±3%.

Source: article PMC4229098, “Alzheimer's Therapeutics Targeting Amyloid Beta 1–42 Oligomers I: Abeta 42 Oligomer Binding to Specific Neuronal Receptors Is Displaced by Drug Candidates That Improve Cognitive Deficits” (PLoS ONE, 2014)
